A short description of data set [1]: radioactive OI and microPET of bone-seeking probe. The format is in vivo, mice. Conditions: 0.5-2 h. As to the method: Bone-seeking PET probe, Na^18F, was also used for radioactive OI and microPET imaging studies to further confirm the use of optical signals from radioactive probes for molecular imaging.
(§1) Radioactive optical imaging: In vivo radioactive OI was also performed with an IVIS Spectrum system. Wavelength-resolved spectral imaging was carried out suing a 18 narrow bands emission filters set (490-850 nm). Animals were placed in a light-tight chamber under isofluorane anesthesia. Each acquisition, with or without filters, took 1-5 min for all studies. Images were acquired and analyzed using Living Image 3.0 software (Caliper life sciences, Hopkinton, Mass.). Quantification of Radioactive OI images was corrected in accordance with radionuclides' respective physical decay properties. Optical signal was normalized to photons per second per centimeter square per steradian (p/s/cm^2/sr). Identical setting was used for in vitro Radioactive OI. For in vivo imaging study, normal mice or mice bearing either C6-fluc or PC3 (n=3 for each imaging probe) were injected via tail vein with Na^18F (5.3-5.7 MBq, 140-150 μCi), [^18F]FDG (10.4-11.3 MBq, 280-305 μCi), Na^131I (2.2-2.3 MBq, 59-61 μCi), ^90YCl3 (1.8-2.0 MBq, 48-54 μCi) or ^90Y-RGD-BBN (2.6-3.3 MBq, 70-90 μCi). For [^18F]FDG imaging study, the mice were fasted overnight prior to the experiment.

Data set [2] is described as follows: thyroid radioactive OI and SPECT/CT. The format is in vivo, mice. The settings on record: quantitative analysis of OI, 0.5-24 h.
Excerpt: Iodine ion can accumulate in the thyroid, and Na^123/131I has been widely used for imaging thyroid function, treating thyroid cancer and sodium iodide symporter^15-17. Therefore, we then tested the SPECT probe, Na^131I, for thyroid radioactive OI. […] High imaging signal was found in the thyroid and bladder at earlier time points postinjection (p.i.). […] At the end of OI study, the mice were sacrificed and the neck and chest areas were opened to expose the internal organs. The thyroid can be easily differentiated (FIG. 1.5d).
as §1, with “For in vivo imaging study, normal mice or mice bearing either C6-fluc or PC3 (n=3 for each imaging probe) were injected via tail vein with Na^18F (5.3-5.7 MBq, 140-150 μCi), [^18F]FDG (10.4-11.3 MBq, 280-305 μCi), Na^131I (2.2-2.3 MBq, 59-61 μCi), ^90YCl3 (1.8-2.0 MBq, 48-54 μCi) or ^90Y-RGD-BBN (2.6-3.3 MBq, 70-90 μCi). For [^18F]FDG imaging study, the mice were fasted overnight prior to the experiment.” left out

Data set [3] concerns C6 cell line without transfection. In words: in vitro [18F]FHBG cell uptake, negative control cells. The format is cell-based, rat. Conditions: non transfected C6 cells, 37° C., 15-120 min. On the procedure:
The in vitro [^18F]FHBG cell uptake study was performed as previously described with minor modifications (12). Briefly, C6-tk cells were seeded into 12-well plates at a density of 5×10^5 cells per well 12 h prior to the experiment. The C6 cell line without transfection was used as a negative control. The cells were then incubated with [^18F]FHBG ([…], 3 μCi/well) at 37° C. for 15, 30, 60 and 120 min. Tumor cells were washed 3 times with chilled phosphate buffered saline (PBS) and harvested with 0.25% trypsin/0.02% ethylenediaminetetraacetic acid (EDTA) (Invitrogen). The cell suspensions were transferred to a 96-well flat bottom black plate (Nunc) and imaged by an IVIS 200 system (Caliper). Luminescent images were taken without a filter [see FIG. 2.1(a)]. The exposure time was 5 min. Then the radioactivity of the cell suspension was measured in a gamma counter (Packard, Meriden, Conn.). The in vitro cell uptake results were expressed as the percentage of the applied activity with decay correction [see FIG. 2.1(b)]. Experiments were performed twice with triplicate samples for each time point. […] More importantly, an excellent correlation has been obtained between OI and gamma counting results [see FIG. 2.1(c), r^2>0.95]. These findings lay the foundation for further in vivo studies to validate the feasibility of using OI for monitoring the nuclear reporter gene system.

For data set [4], the system named is C6-tk tumors (HSV1-tk reporter gene). In words: in vivo OI and PET imaging of mice bearing C6-tk and C6 tumors. Conditions: for tumor to normal tissue (T/N) ratio: n=6. As to the method: All animal studies were carried out in compliance with federal and local institutional rules for the conduct of animal experimentation. Mice bearing two tumors (C6-tk and C6) were then used for in vivo studies. The C6-tk (left) and C6 (right) cells were injected contra-laterally in the dorsal shoulder region of each mouse (2×10^6 cells/mouse; athymic nude mice were purchased from Charles River Laboratories, n=6). Approximately 10 days later, when tumor size reached about 1-1.5 cm in diameter, small animal PET and OI were performed using the mice and the PET probe [^18F]FHBG. Images at 1 h and 2 h were obtained by both OI and PET. Results are shown by average radiance (photon/second/cm^2/str) for OI and percentage of injected dose per gram (% ID/g) for PET based on the method previously described (13). […] The strong signals in the lower part of the mouse body [FIG. 2.2 (a)] are due to the presence of the radioactivity in the bladder. […] At 2 h post-injection, with the elimination of [^18F]FHBG, only C6-tk tumors can be clearly visualized in both imaging modalities (see FIG. 2.2).

The subject of data set [5] is C6-tk cells (C6 rat glioma stably transfected with HSV-sr39tk). Nature of the data set: in vitro [18F]FHBG cell uptake, measured by OI and gamma counting. Conditions: 37° C., 15-120 min. The format is cell-based. The text has this:
This is mainly attributed to the ability of radioactive materials to produce low energy visible photons (1.2-3.1 eV, 400-1000 nm) associated with Cerenkov or Bremsstrahlung radiation (8-11). In this research study, we further evaluated the feasibility of using OI to monitor the nuclear reporter gene/reporter probe systems. HSV1-tk and [^18F]FHBG was thus chosen as a model system in this study. The C6 rat glioma cell line stably transfected with HSV-sr39tk plasmids (C6-tk) (12) was used, and the in vitro [^18F]FHBG uptakes in C6-tk cells were measured by both an IVIS optical imaging system (Caliper) and a gamma counter (Perkin Elmer). Finally, we performed in vivo imaging studies of the reporter gene/reporter probe using both OI and PET followed by a biodistribution study.
The in vitro [^18F]FHBG cell uptake study was performed as previously described with minor modifications (12). Briefly, C6-tk cells were seeded into 12-well plates at a density of 5×10^5 cells per well 12 h prior to the experiment. The C6 cell line without transfection was used as a negative control. […] Then the radioactivity of the cell suspension was measured in a gamma counter (Packard, Meriden, Conn.). The in vitro cell uptake results were expressed as the percentage of the applied activity with decay correction [see FIG. 2.1(b)]. […]

Data set [6] in a line: biodistribution study by OI of organs and gamma counting. The format is in vivo, mice. On the procedure: To further compare the imaging results obtained from OI and PET, biodistribution studies were conducted. Mice were sacrificed and different organs were collected at 1 h post-injection of [^18F]FHBG. OI images were obtained for these radioactive organs and quantification analysis of optical images was performed using Living Image software version 3.1 [see FIG. 2.3(a)]. Meanwhile, the radioactivity of the organs was also measured using a gamma counter after weighing, and the radioactivity uptake in the tumor and normal tissues was calculated and expressed as a percentage of the injected radioactive dose per gram of tissue (% ID/g) [see FIG. 2.3(b)].
The ratio of kidney to tumor uptake of [^18F]FHBG at 1 h was also calculated to be 2.3 vs. 1.4, for gamma counting vs. OI quantification, respectively. This discrepancy could mainly originate from the diverse optical properties of different tissues, which ultimately affects light imaging and quantification. Compared with the C6-tk tumor, the kidney contains more hemoglobin that absorbs more optical photons. Moreover, unlike high energy gamma rays, the low energy photons have very weak tissue penetrability. Light sources deeper in the tissue contribute less for the total optical signals than those closer to the surface. Therefore the kidney/tumor ratio measured by OI is lower than that obtained by gamma counting. Overall, PET has a better quantitative capability than OI. However, radioactive OI can still serve as a qualitative or semiquantitative research tool for radioactive reporter probe studies. The radioactive OI signals also have a uniquely wide wavelength of emission spectrum (9). The emissions in the near infra-red range are especially favorable for OI in living subjects. In comparison with current reporter gene imaging using BLI probes, radioactive reporter probes may offer a better option for 3D OI reconstruction.

Data set [7] in a line: radioactive OI of 90YCl3 in mice. The format is in vivo. The settings on record: various time points p.i. As to the method:
Mice injected with ^90YCl3 (1.8-2.0 MBq each) were also imaged by an IVIS Spectrum system at different time points p.i. (FIG. 1.6e). […] The results obtained by the radioactive OI also agreed well with the previously reports which measured the in vivo behavior of ^90YCl3 by biodistribution study^21.
as §1, with “For [^18F]FDG imaging study, the mice were fasted overnight prior to the experiment.” left out

The mark [8] stands for this setting: OI, 1 h after tail vein injection.

The structures appear in SMILES notation.

On to `[18F-].[Na+]` [Na^18F], for which the “distribution of imaging signal” value in data set [1] was “High and consistence imaging signals were observed in the bone structures”.
On to `[131I-].[Na+]` [Na^131I], for which, in data set [2], the thyroid uptake entry is “accumulated and maintained in the thyroid”.
On to `Nc1nc2c(ncn2CCC(CO)C[18F])c(=O)[nH]1` (stereo not drawn) [[^18F]FHBG, 9-(4-^18F-fluoro-3-[hydroxymethyl]butyl)guanine], for which the “cell uptake of [18F]FHBG” value in data set [3] was “very low cell uptake”; in data set [5], “rapid and high uptake”. In addition, in data set [4] (setting [8]), the “tracer uptake in C6-tk tumors” value is on record as “C6-tk tumors can be clearly delineated”. The “tracer uptake in control C6 tumors” value in data set [4] (setting [8]) is reported as “minimum tracer uptakes”. The “tumor to normal tissue (T/N) ratio” value in data set [4] (OI, 1 h post-injection) came out at 2.6±0.5; in data set [4] (OI, 2 h post-injection), 5.1±1.1; in data set [4] (PET, 1 h post-injection), 43.2±8.4; in data set [4] (PET, 2 h post-injection), 143.0±14.8. The “ratio of kidney to tumor uptake” value in data set [6] (1 h, OI quantification) was 1.4; in data set [6] (1 h, gamma counting), 2.3. In addition, the “organs visible by optical imaging (biodistribution)” value in data set [6] (1 h post-injection, excised organs) is “the C6-tk tumor, the kidney, and the intestine were clearly visible”. The clearance route entry in data set [6] (kidney vs intestine signal, 1 h) was “mainly through urinary excretion”.
For `[Cl][90Y]([Cl])[Cl]` [^90YCl3], the tissue accumulation entry in data set [7] was “accumulated in the liver as well as in the bone (femur)”.

The values above are taken from US10517964B2, “Optical imaging probes, optical imaging systems, methods of optical imaging, and methods of using optical imaging probes” (priority 2011, dated 2019).
